Reference: patent US10227323B2, “Glucosylceramide synthase inhibitors for the treatment of diseases” (BIOMARIN PHARMACEUTICAL INC., priority 2013, dated 2019)

Molecular target: T1, GCS (Canis lupus familiaris, UniProt A0A8I3MXG6)
T1 sequence (A0A8I3MXG6 1-394): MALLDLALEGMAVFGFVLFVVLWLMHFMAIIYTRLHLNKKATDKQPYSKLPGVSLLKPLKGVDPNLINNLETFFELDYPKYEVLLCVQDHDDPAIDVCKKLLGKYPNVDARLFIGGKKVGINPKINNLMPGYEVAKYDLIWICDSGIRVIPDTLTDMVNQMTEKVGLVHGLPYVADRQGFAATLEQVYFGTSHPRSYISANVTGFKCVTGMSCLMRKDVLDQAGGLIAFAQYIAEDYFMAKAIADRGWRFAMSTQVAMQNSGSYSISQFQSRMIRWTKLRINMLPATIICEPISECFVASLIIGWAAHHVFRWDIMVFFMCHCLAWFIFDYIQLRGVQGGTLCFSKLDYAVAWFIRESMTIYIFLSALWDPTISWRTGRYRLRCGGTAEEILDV
Experiment: Assay 1: GCS Enzymatic Assay (MDCK cell lysate, C6-NBD-Ceramide, LC/MS)
Assay type: biochemical, canine
Settings: Table 2; for IC50: data without asterisk, read-out: IC50 (nM) generated from Assay 1; for % inhibition generated from Assay 1: data marked by *
In short: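 LC/MS/MS measurement of glucosylceramide and NBD-ceramide after a 1 h, 37 °C reaction with 100 μM UDP-glucose and 10 μM C6-NBD-ceramide gave IC50s or percent inhibition.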

| IC50 | SMILES | % inhibition generated from Assay 1 |
| --- | --- | --- |
| < 50 nM | O=C(N[C@H](CN1CCCC1)[C@H](O)c1ccc(OC2CC2)c(F)c1)C(F)(F)c1ccc(-c2ccc(F)cc2)cc1 [Compound 204, N-((1R,2R)-1-(4-cyclopropoxy-3-fluorophenyl)-1-hydroxy-3-(pyrrolidin-1-yl)propan-2-yl)-2,2-difluoro-2-(4′-fluoro-[1,1′-biphenyl]-4-yl)acetamide] | – |
| < 50 nM | Cn1ncc2cc(-c3ccc(C(=O)C(=O)N[C@H](CN4CCCC4)[C@H](O)c4ccc(OC5CC5)c(Cl)c4)cc3)ccc21 [Compound 205, N-((1R,2R)-1-(3-chloro-4-cyclopropoxyphenyl)-1-hydroxy-3-(pyrrolidin-1-yl)propan-2-yl)-2-(4-(1-methyl-1H-indazol-5-yl)phenyl)-2-oxoacetamide] | – |
| – | O=C(N[C@H](CN1CCCC1)[C@H](O)c1ccc(OC2CC2)c(Cl)c1)C(F)(F)c1cccc(Oc2ccc(F)cc2)c1 [Compound 206, N-((1R,2R)-1-(3-chloro-4-cyclopropoxyphenyl)-1-hydroxy-3-(pyrrolidin-1-yl)propan-2-yl)-2,2-difluoro-2-(3-(4-fluorophenoxy)phenyl)acetamide] | A* (the compound had a % inhibition of a percent inhibition of greater than or equal to about 50%) |
| < 50 nM | Cn1ncc2cc(-c3ccc(C(=O)C(=O)N[C@H](CN4CCCC4)[C@H](O)c4ccc5c(c4)OCCO5)cc3)ccc21 [Compound 207, N-((1R,2R)-1-(2,3-dihydrobenzo[b][1,4]dioxin-6-yl)-1-hydroxy-3-(pyrrolidin-1-yl)propan-2-yl)-2-(4-(1-methyl-1H-indazol-5-yl)phenyl)-2-oxoacetamide] | – |
| < 50 nM | O=C(N[C@H](CN1CCCC1)[C@H](O)c1ccc(OC2CC2)c(F)c1)C(=O)c1ccc(-c2ccc(F)cc2)cc1 [Compound 208, N-((1R,2R)-1-(4-cyclopropoxy-3-fluorophenyl)-1-hydroxy-3-(pyrrolidin-1-yl)propan-2-yl)-2-(4′-fluoro-[1,1′-biphenyl]-4-yl)-2-oxoacetamide] | – |
| < 50 nM | O=C(N[C@H](CN1CCCC1)[C@H](O)c1ccc(OC2CC2)c(Cl)c1)C(=O)c1ccc2ccccc2c1 [Compound 209, N-((1R,2R)-1-(3-chloro-4-cyclopropoxyphenyl)-1-hydroxy-3-(pyrrolidin-1-yl)propan-2-yl)-2-(naphthalen-2-yl)-2-oxoacetamide] | – |
| < 50 nM | O=C(N[C@H](CN1CCCC1)[C@H](O)c1cc(F)c2c(c1)OCCO2)C(F)(F)c1cccc(Oc2ccc(F)cc2)c1 [Compound 210, 2,2-difluoro-N-((1R,2R)-1-(8-fluoro-2,3-dihydrobenzo[b][1,4]dioxin-6-yl)-1-hydroxy-3-(pyrrolidin-1-yl)propan-2-yl)-2-(3-(4-fluorophenoxy)phenyl)acetamide] | – |
| – | O=C(N[C@H](CN1CCCC1)[C@H](O)c1ccc2c(c1)OCCO2)C(F)(F)c1csc(-c2ccc(F)cc2)n1 [Compound 211, N-((1R,2R)-1-(2,3-dihydrobenzo[b][1,4]dioxin-6-yl)-1-hydroxy-3-(pyrrolidin-1-yl)propan-2-yl)-2,2-difluoro-2-(2-(4-fluorophenyl)thiazol-4-yl)acetamide] | B* (the compound had a % inhibition of greater than or equal to about 3% but less than about 50%) |
| < 50 nM | Cn1ncc2cc(-c3ccc(C(F)(F)C(=O)N[C@H](CN4CCCC4)[C@H](O)c4ccc5c(c4)OCCO5)cc3)ccc21 [Compound 212, N-((1R,2R)-1-(2,3-dihydrobenzo[b][1,4]dioxin-6-yl)-1-hydroxy-3-(pyrrolidin-1-yl)propan-2-yl)-2,2-difluoro-2-(4-(1-methyl-1H-indazol-5-yl)phenyl)acetamide] | – |
| – | O=C(N[C@H](CN1CCCC1)[C@H](O)c1ccc(OC2CC2)c(Cl)c1)C(F)(F)c1csc(-c2ccc(F)cc2)n1 [Compound 213, N-((1R,2R)-1-(3-chloro-4-cyclopropoxyphenyl)-1-hydroxy-3-(pyrrolidin-1-yl)propan-2-yl)-2,2-difluoro-2-(2-(4-fluorophenyl)thiazol-4-yl)acetamide] | B* (the compound had a % inhibition of greater than or equal to about 3% but less than about 50%) |
| < 50 nM | O=C(N[C@H](CN1CCCC1)[C@H](O)c1ccc(OC2CC2)c(Cl)c1)C(=O)c1ccc(-c2ccccn2)cc1 [Compound 214, N-((1R,2R)-1-(3-chloro-4-cyclopropoxyphenyl)-1-hydroxy-3-(pyrrolidin-1-yl)propan-2-yl)-2-oxo-2-(4-(pyridin-2-yl)phenyl)acetamide] | – |
| – | O=C(N[C@H](CN1CCCC1)[C@H](O)c1ccc(OC2CC2)c(Cl)c1)C(=O)c1cnc(-c2ccc(F)cc2)s1 [Compound 215, N-((1R,2R)-1-(3-chloro-4-cyclopropoxyphenyl)-1-hydroxy-3-(pyrrolidin-1-yl)propan-2-yl)-2-(2-(4-fluorophenyl)thiazol-5-yl)-2-oxoacetamide] | B* (the compound had a % inhibition of greater than or equal to about 3% but less than about 50%) |
| < 50 nM | Cn1ncc2cc(C(=O)C(=O)N[C@H](CN3CCCC3)[C@H](O)c3ccc4c(c3)OCCO4)ccc21 [Compound 216, N-((1R,2R)-1-(2,3-dihydrobenzo[b][1,4]dioxin-6-yl)-1-hydroxy-3-(pyrrolidin-1-yl)propan-2-yl)-2-(1-methyl-1H-indazol-5-yl)-2-oxoacetamide] | – |
| < 50 nM | Cn1ncc2cc(C(=O)C(=O)N[C@H](CN3CCCC3)[C@H](O)c3cc(F)c4c(c3)OCCO4)ccc21 [Compound 217, N-((1R,2R)-1-(8-fluoro-2,3-dihydrobenzo[b][1,4]dioxin-6-yl)-1-hydroxy-3-(pyrrolidin-1-yl)propan-2-yl)-2-(1-methyl-1H-indazol-5-yl)-2-oxoacetamide] | – |
| – | O=C(N[C@H](CN1CCCC1)[C@H](O)c1ccc(OC2CC2)c(Cl)c1)C(F)(F)c1ccc(-c2ccc(F)cc2)s1 [Compound 218, N-((1R,2R)-1-(3-chloro-4-cyclopropoxyphenyl)-1-hydroxy-3-(pyrrolidin-1-yl)propan-2-yl)-2,2-difluoro-2-(5-(4-fluorophenyl)thiophen-2-yl)acetamide] | B* (the compound had a % inhibition of greater than or equal to about 3% but less than about 50%) |
| – | O=C(N[C@H](CN1CCCC1)[C@H](O)c1ccc(OC2CC2)c(Cl)c1)C(=O)c1ccc(-c2ccc(F)cc2)s1 [Compound 219, N-((1R,2R)-1-(3-chloro-4-cyclopropoxyphenyl)-1-hydroxy-3-(pyrrolidin-1-yl)propan-2-yl)-2-(5-(4-fluorophenyl)thiophen-2-yl)-2-oxoacetamide] | A* (the compound had a % inhibition of a percent inhibition of greater than or equal to about 50%) |
| < 50 nM | Cn1ncc2cc(-c3ccc(C(=O)C(=O)N[C@H](CN4CCCC4)[C@H](O)c4cc(F)c5c(c4)OCCO5)cc3)ccc21 [Compound 220, N-((1R,2R)-1-(8-fluoro-2,3-dihydrobenzo[b][1,4]dioxin-6-yl)-1-hydroxy-3-(pyrrolidin-1-yl)propan-2-yl)-2-(4-(1-methyl-1H-indazol-5-yl)phenyl)-2-oxoacetamide] | – |
| – | O=C(N[C@H](CN1CCCC1)[C@H](O)c1cc(F)c2c(c1)OCCO2)C(F)(F)c1csc(-c2ccc(F)cc2)n1 [Compound 221, 2,2-difluoro-N-((1R,2R)-1-(8-fluoro-2,3-dihydrobenzo[b][1,4]dioxin-6-yl)-1-hydroxy-3-(pyrrolidin-1-yl)propan-2-yl)-2-(2-(4-fluorophenyl)thiazol-4-yl)acetamide] | A* (the compound had a % inhibition of a percent inhibition of greater than or equal to about 50%) |
| – | O=C(N[C@H](CN1CCCC1)[C@H](O)c1ccc(OC2CC2)c(Cl)c1)C(F)(F)c1cnc(-c2ccc(F)cc2)s1 [Compound 222, N-((1R,2R)-1-(3-chloro-4-cyclopropoxyphenyl)-1-hydroxy-3-(pyrrolidin-1-yl)propan-2-yl)-2,2-difluoro-2-(2-(4-fluorophenyl)thiazol-5-yl)acetamide] | B* (the compound had a % inhibition of greater than or equal to about 3% but less than about 50%) |
| < 50 nM | Cn1ncc2cc(-c3ccc(C(=O)C(=O)N[C@H](CN4CCC4)[C@H](O)c4cc(F)c5c(c4)OCCO5)cc3)ccc21 [Compound 223, N-((1R,2R)-3-(azetidin-1-yl)-1-(8-fluoro-2,3-dihydrobenzo[b][1,4]dioxin-6-yl)-1-hydroxypropan-2-yl)-2-(4-(1-methyl-1H-indazol-5-yl)phenyl)-2-oxoacetamide] | – |
| – | Cn1ncc2cc(C(=O)C(=O)N[C@H](CN3CCCC3)[C@H](O)c3ccc(OC4CC4)c(Cl)c3)ccc21 [Compound 224, N-((1R,2R)-1-(3-chloro-4-cyclopropoxyphenyl)-1-hydroxy-3-(pyrrolidin-1-yl)propan-2-yl)-2-(1-methyl-1H-indazol-5-yl)-2-oxoacetamide] | A* (the compound had a % inhibition of a percent inhibition of greater than or equal to about 50%) |
| – | O=C(N[C@H](CN1CCCC1)[C@H](O)c1ccc(OC2CC2)c(Cl)c1)C(=O)c1ccc2sc(Cl)cc2c1 [Compound 225, N-((1R,2R)-1-(3-chloro-4-cyclopropoxyphenyl)-1-hydroxy-3-(pyrrolidin-1-yl)propan-2-yl)-2-(2-chlorobenzo[b]thiophen-5-yl)-2-oxoacetamide] | B* (the compound had a % inhibition of greater than or equal to about 3% but less than about 50%) |
